# Substitutions are numbered along the chain they refer to. Active and inactive are the calls of the source. No cut-off for these calls is given here.
# How the values were obtained:
# [1] = biological target: Epidermal growth factor receptor (Homo sapiens, UniProt P00533, EX19DEL)
# [2] = biological target: Epidermal growth factor receptor (Homo sapiens, UniProt P00533)
# [3] = biological target: Epidermal growth factor receptor (Homo sapiens, UniProt P00533, L858R)
# BaF3 [4] = experiment: cells; conditions: Mus musculus, BaF3, 72 h
# BaF3 [5] = experiment: cells; format: functional, cell-based; conditions: Mus musculus, BaF3, 72 h
# BaF3 [6] = experiment: cells; format: functional, cell-based; conditions: Mus musculus, BaF3, 72 h; remark: listed apart in the source
# Homo sapiens = organism: Homo sapiens; experiment: Inhibition of EGFR […] mutant (unknown origin) assessed as percent of control activity at 1 uM by radiometric protein kinase-reaction biology assay; values are per cent of control
# [7] = Solubility in 10% DMSO after 24 hrs by HPLC analysis; format: physicochemical
# [8] = Solubility in 100% DMSO after 24 hrs by HPLC analysis; format: physicochemical
# BaF3 [9] = format: cell-based; conditions: Mus musculus, dose 10-1000 nM, time 8.0 hrs
# BaF3 [10] = experiment: Inhibition of EGFR Del19 mutant in mouse BaF3 cells assessed as protein phosphorylation at 10 to 1000 nM incubated for 8 hrs by Western blot analysis; format: cell-based; conditions: dose 10-1000 nM
# [11] = tested on: T1, Receptor-type tyrosine-protein kinase FLT3 (Homo sapiens), P36888 [D835Y]; experiment: Inhibition of FLT3 D835Y mutant (unknown origin) assessed as percent of control activity at 1 uM by radiometric protein kinase-reaction biology assay; values are per cent of control
# T1 sequence (whole entry): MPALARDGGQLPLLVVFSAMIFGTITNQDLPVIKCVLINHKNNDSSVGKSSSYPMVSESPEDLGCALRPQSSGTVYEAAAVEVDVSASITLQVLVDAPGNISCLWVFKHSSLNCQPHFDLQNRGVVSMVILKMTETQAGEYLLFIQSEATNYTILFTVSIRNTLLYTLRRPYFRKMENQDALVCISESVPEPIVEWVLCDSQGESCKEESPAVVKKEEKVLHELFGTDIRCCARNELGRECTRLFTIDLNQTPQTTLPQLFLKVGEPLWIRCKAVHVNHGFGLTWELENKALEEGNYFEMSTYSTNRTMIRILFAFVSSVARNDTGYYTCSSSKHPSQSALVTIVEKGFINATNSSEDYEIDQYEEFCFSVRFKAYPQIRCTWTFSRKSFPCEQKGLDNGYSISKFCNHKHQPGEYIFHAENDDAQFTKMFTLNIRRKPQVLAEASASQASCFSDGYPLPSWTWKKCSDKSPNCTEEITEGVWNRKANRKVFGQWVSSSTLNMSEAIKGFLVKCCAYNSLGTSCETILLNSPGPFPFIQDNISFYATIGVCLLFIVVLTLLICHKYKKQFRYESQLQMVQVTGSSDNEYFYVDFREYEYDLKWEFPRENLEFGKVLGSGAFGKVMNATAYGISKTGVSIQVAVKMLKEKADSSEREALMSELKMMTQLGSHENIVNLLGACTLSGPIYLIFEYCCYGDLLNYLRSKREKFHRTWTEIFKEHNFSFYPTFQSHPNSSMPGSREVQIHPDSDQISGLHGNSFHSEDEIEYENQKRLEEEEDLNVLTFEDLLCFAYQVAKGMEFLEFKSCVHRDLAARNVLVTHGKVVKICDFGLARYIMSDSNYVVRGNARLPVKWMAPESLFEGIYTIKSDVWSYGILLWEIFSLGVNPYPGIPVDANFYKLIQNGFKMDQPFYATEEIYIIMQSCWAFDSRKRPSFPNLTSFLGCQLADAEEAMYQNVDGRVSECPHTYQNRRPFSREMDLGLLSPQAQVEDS
# [12] = Solubility in neutral aqueous solutions after 24 hrs by HPLC analysis; format: physicochemical
# [13] = tested on: T2, Receptor-type tyrosine-protein kinase FLT3 (Homo sapiens), P36888 [D835V]; experiment: Inhibition of FLT3 D835V mutant (unknown origin) assessed as percent of control activity at 1 uM by radiometric protein kinase-reaction biology assay; values are per cent of control
# T2 sequence (whole entry): T1 sequence (whole entry) with Y835V
# [14] = tested on: Receptor-type tyrosine-protein kinase FLT3 (Homo sapiens), P36888 [UNDEFINED MUTATION]; experiment: Inhibition of FLT3 ITD/D835V mutant (unknown origin) assessed as percent of control activity at 1 uM by radiometric protein kinase-reaction biology assay; values are per cent of control
# BaF3 [15] = format: cell-based; conditions: Mus musculus, dose 10-1000 nM, time 8.0 hrs; remark: listed apart in the source
# BaF3 [16] = experiment: cells; conditions: Mus musculus, BaF3, 72 h; remark: listed apart in the source
# BaF3 [17] = experiment: cells; conditions: Mus musculus, BaF3, 72 h; remark: listed apart in the source
# BaF3 [18] = experiment: cells; conditions: Mus musculus, BaF3, 72 h; remark: listed apart in the source
# BaF3 [19] = experiment: cells; conditions: Mus musculus, BaF3, 72 h; remark: listed apart in the source
# BaF3 [20] = experiment: cells; conditions: Mus musculus, BaF3, 72 h; remark: listed apart in the source
# BaF3 [21] = experiment: cells; format: functional, cell-based; conditions: Mus musculus, BaF3, 72 h; remark: listed apart in the source
# BaF3 [22] = experiment: cells; conditions: Mus musculus, BaF3, 72 h; remark: listed apart in the source
# BaF3 [23] = experiment: cells; conditions: Mus musculus, BaF3, 72 h; remark: listed apart in the source
# BaF3 [24] = experiment: cells; format: functional, cell-based; conditions: Mus musculus, BaF3, 72 h; remark: listed apart in the source
# [25] = biological target: RAC-alpha serine/threonine-protein kinase (Mus musculus) (UniProt P31750); experiment: Inhibition of AKT phosphorylation in mouse BaF3 cells harboring L858R mutant assessed as […] phosphorylation at 10 to 1000 nM incubated for 8 hrs by Western blot analysis; format: cell-based; conditions: dose 10-1000 nM
# Chain of RAC-alpha serine/threonine-protein kinase (Mus musculus) (P31750 whole entry): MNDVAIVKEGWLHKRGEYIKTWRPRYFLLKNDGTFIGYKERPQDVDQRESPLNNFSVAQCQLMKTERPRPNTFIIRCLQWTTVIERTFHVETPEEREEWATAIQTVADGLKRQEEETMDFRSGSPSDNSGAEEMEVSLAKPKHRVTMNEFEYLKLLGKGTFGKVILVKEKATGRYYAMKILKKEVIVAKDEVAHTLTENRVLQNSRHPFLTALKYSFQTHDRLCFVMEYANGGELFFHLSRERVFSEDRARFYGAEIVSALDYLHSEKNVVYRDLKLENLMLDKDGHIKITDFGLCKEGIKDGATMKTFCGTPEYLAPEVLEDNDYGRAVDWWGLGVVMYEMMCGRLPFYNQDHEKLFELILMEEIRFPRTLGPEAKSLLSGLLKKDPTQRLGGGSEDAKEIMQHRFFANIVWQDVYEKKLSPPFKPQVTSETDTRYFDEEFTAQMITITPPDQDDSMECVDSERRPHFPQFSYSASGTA
# [26] = biological target: T3, Mitogen-activated protein kinase 1 and 3 (ERK2 and ERK1) (Mus musculus) (UniProt P63085+Q63844); experiment: Inhibition of ERK1/2 phosphorylation in mouse BaF3 cells harboring L858R mutant assessed as ERK1/2 phosphorylation at 10 to 1000 nM incubated for 8 hrs by Western blot analysis; format: cell-based; conditions: dose 10-1000 nM
# T3 sequence (P63085 whole entry, looked up): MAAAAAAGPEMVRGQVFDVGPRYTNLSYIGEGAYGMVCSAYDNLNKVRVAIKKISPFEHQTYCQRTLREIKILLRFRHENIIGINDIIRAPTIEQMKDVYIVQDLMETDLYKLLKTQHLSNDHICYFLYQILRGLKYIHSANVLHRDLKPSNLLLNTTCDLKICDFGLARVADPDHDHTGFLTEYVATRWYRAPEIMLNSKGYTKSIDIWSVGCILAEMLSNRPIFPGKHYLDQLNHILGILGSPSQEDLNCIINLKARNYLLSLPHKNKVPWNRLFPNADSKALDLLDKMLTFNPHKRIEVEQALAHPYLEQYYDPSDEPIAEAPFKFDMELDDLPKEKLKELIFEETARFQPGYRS
# T3 sequence (Q63844 whole entry, looked up): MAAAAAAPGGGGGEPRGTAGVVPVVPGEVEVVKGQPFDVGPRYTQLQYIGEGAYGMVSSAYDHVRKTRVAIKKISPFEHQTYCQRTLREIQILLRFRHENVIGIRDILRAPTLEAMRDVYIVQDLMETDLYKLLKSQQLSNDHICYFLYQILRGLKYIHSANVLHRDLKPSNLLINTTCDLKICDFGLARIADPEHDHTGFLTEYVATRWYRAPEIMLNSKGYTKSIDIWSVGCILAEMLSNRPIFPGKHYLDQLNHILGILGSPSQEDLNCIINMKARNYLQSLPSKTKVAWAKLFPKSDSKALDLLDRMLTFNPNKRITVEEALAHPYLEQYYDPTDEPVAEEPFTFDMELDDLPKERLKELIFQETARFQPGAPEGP
# [27] = biological target: T3, Mitogen-activated protein kinase 1 and 3 (ERK2 and ERK1) (Mus musculus); format: cell-based; conditions: BaF3, dose 10-1000 nM, time 8.0 hrs
# [28] = biological target: T3, Mitogen-activated protein kinase 1 and 3 (ERK2 and ERK1) (Mus musculus); format: cell-based; conditions: BaF3, dose 10-1000 nM, time 8.0 hrs; remark: listed apart in the source
# [29] = tested on: Epidermal growth factor receptor (Homo sapiens), P04626+P00533+Q15303+P21860 [L858R]; conditions: Mus musculus; BaF3; dose 10-1000 nM, time 8.0 hrs
# [30] = biological target: T3, Mitogen-activated protein kinase 1 and 3 (ERK2 and ERK1) (Mus musculus); experiment: Inhibition of ERK1/2 phosphorylation in mouse BaF3 cells harboring Del19 mutant assessed as ERK1/2 phosphorylation at 10 to 1000 nM incubated for 8 hrs by Western blot analysis; format: cell-based; conditions: dose 10-1000 nM
# [31] = biological target: RAC-alpha serine/threonine-protein kinase (Mus musculus) (UniProt P31750); experiment: Inhibition of AKT phosphorylation in mouse BaF3 cells harboring Del19 mutant assessed as […] phosphorylation at 10 to 1000 nM incubated for 8 hrs by Western blot analysis; format: cell-based; conditions: dose 10-1000 nM
# [32] = biological target: RAC-alpha serine/threonine-protein kinase (Mus musculus) (UniProt P31750); format: cell-based; conditions: BaF3, dose 10-1000 nM, time 8.0 hrs
# [33] = biological target: RAC-alpha serine/threonine-protein kinase (Mus musculus) (UniProt P31750); format: cell-based; conditions: BaF3, dose 10-1000 nM, time 8.0 hrs; remark: listed apart in the source
# [34] = biological target: Epidermal growth factor receptor (Homo sapiens, UniProt P00533, L858R/T790M)
# Chain of Epidermal growth factor receptor (Homo sapiens, UniProt P00533) (P00533 whole entry): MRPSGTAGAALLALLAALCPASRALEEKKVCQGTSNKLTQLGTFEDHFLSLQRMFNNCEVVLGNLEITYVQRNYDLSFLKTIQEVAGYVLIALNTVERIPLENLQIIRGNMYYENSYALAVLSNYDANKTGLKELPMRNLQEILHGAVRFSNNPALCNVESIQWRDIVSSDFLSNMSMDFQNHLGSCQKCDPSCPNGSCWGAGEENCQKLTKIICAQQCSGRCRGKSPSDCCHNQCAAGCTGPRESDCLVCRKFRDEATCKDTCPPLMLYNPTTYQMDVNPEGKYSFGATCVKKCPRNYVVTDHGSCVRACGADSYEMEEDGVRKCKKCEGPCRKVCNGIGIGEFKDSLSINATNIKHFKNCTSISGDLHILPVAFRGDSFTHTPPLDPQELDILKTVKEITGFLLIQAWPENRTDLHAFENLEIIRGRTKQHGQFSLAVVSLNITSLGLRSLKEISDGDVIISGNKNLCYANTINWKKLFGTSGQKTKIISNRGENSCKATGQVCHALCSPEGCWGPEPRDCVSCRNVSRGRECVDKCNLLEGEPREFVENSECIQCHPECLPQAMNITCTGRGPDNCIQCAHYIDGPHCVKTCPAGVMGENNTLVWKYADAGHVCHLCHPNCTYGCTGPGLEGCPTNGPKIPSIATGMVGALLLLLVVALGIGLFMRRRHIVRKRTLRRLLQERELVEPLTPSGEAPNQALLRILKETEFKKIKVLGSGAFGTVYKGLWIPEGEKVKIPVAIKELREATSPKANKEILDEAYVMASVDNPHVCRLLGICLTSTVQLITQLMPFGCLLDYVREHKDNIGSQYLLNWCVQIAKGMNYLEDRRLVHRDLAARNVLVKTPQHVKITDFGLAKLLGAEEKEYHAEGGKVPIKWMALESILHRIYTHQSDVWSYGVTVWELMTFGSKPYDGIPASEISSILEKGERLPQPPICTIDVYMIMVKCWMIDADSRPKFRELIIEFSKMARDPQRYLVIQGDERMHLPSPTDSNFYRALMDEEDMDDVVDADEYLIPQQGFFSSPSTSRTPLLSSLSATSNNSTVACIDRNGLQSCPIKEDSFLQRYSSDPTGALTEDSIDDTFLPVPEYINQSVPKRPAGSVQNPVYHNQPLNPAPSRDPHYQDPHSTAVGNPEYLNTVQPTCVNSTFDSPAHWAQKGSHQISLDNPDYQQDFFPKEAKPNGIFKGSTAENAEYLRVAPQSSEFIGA
# Chain of Epidermal growth factor receptor (Homo sapiens, UniProt P00533, EX19DEL) (P00533 whole entry, looked up, stated change not applied): as the sequence (P00533 whole entry) above
# Chain of Epidermal growth factor receptor (Homo sapiens, UniProt P00533, L858R) (P00533 25-1210 L858R limits assumed): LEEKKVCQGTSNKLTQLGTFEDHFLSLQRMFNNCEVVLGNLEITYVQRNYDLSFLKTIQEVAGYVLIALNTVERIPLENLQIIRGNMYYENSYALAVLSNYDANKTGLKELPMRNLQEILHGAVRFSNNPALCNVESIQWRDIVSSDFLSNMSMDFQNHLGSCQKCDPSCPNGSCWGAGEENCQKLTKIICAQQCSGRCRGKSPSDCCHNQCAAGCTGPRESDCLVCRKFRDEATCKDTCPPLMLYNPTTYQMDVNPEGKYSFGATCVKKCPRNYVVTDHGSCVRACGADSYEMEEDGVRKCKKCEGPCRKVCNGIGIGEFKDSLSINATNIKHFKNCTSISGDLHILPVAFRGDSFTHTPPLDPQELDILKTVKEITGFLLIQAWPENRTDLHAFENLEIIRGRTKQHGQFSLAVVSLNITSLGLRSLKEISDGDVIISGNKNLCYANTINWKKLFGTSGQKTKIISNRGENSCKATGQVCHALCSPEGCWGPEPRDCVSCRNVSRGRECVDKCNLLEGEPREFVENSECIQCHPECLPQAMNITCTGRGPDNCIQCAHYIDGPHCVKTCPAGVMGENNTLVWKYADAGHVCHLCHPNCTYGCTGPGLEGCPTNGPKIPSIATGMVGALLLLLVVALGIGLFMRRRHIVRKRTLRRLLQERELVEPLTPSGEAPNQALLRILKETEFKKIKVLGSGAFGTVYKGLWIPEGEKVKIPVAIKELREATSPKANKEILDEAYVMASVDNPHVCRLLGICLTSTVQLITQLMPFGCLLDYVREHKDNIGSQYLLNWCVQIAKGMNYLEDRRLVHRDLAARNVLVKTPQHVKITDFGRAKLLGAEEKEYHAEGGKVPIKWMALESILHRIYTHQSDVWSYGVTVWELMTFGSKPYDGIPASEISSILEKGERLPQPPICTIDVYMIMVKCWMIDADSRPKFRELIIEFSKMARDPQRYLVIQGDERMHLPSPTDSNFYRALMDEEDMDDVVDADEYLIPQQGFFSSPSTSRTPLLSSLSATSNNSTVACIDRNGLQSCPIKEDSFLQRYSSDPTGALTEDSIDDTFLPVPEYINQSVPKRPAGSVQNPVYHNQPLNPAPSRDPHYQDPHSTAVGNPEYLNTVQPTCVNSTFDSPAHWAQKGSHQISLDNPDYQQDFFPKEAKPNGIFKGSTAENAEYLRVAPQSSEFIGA
Structure (SMILES),IC50 [1],IC50 [2],IC50 [3],other results
COc1cc2ncnc3c2cc1OCCCCCCOc1cc(Cl)ccc1N3,63500 nM,> 100000 nM,> 100000 nM,–
Fc1cc2c(cc1Cl)Nc1ncnc3ccc(cc13)OCCOCCO2,1030 nM,–,–,IC50 (BaF3 [4]): 5360 nM; IC50 (BaF3 [5]): 2760 nM; IC50 (BaF3 [6]): 3100 nM
COc1cc2ncnc3c2cc1OCCOCCOc1ccc(Cl)c(c1)N3,70400 nM,> 100000 nM,19900 nM,–
COc1cc2ncnc3c2cc1OCCOCCOc1cc(F)c(Cl)cc1N3,–,–,–,residual activity (Homo sapiens): 26%; solubility at 24 h [7]: 0.283 µg/mL; solubility [8]: 2592 µg/mL; inhibition (BaF3 [9]): Active; inhibition (BaF3 [10]): Active; residual activity [11]: 25%; solubility at 24 h [12]: 0.131 µg/mL; residual activity [13]: 5%; residual activity [14]: 33%; inhibition (BaF3 [15]): Active
COc1cc2ncnc3c2cc1OCCOCCOCCOc1ccccc1N3,1870 nM,> 100000 nM,87.6 nM,–
C=CC(=O)Nc1cc(Nc2ncc(C(=O)OC(C)C)c(-c3cn(C)c4ccccc34)n2)c(OC)cc1N(C)CCN(C)C [MOBOCERTINIB],–,–,–,IC50 (BaF3 [16]): 2170 nM; IC50 (BaF3 [4]): 1.9 nM; IC50 (BaF3 [17]): 1130 nM; IC50 (BaF3 [5]): 1060 nM; IC50 (BaF3 [18]): 8.9 nM; IC50 (BaF3 [19]): 47.6 nM; IC50 (BaF3 [20]): 3810 nM; IC50 (BaF3 [6]): 5 nM; IC50 (BaF3 [21]): 9 nM; IC50 (BaF3 [22]): 27.1 nM; IC50 (BaF3 [23]): 8.3 nM; IC50 (BaF3 [24]): 10.1 nM
COc1cc2ncnc3c2cc1OCCOCCOc1cc(Cl)cc(c1)N3,6300 nM,–,–,–
COc1cc2ncnc3c2cc1OCCOCCOc1cc(Cl)ccc1N3,–,> 100000 nM,–,–
COc1cc2ncnc3c2cc1OCCOCCOc1cccc(c1)N3,33900 nM,–,–,–
COc1cc2ncnc3c2cc1OCCCCCCOc1c(Cl)cccc1N3,3030 nM,–,> 100000 nM,–

# Now from value to molecule, other results behind:
IC50 [1],IC50 [2],IC50 [3],Structure (SMILES),other results
235 nM,> 100000 nM,655 nM,COc1cc2ncnc3c2cc1OCCCCCCOc1cc(F)c(Cl)cc1N3,–
42.9 nM,> 100000 nM,32.6 nM,COc1cc2ncnc3c2cc1OCCOCCOCCOc1cccc(Cl)c1N3,–
509 nM,–,–,COc1cc2ncnc3c2cc1OCCOCCOc1c(Cl)cccc1N3,–
493 nM,–,1120 nM,COc1cc2ncnc3c2cc1OCCOCCOc1cc(ccc1Cl)N3,–
19.6 nM,> 100000 nM,739 nM,COc1cc2ncnc3c2cc1OCCCCCCOc1ccc(Cl)cc1N3,–
16.2 nM,> 100000 nM,38.3 nM,COc1cc2ncnc3c2cc1OCCOCCOCCOc1cc(Cl)ccc1N3,–
1.3 nM,> 100000 nM,2.8 nM,COc1cc2ncnc3c2cc1OCCOCCOCCOc1cc(F)c(Cl)cc1N3,inhibition [25]: Active; inhibition [26]: Active; inhibition [27]: Active; inhibition [28]: Active; inhibition [29]: Active; inhibition [30]: Active; inhibition [31]: Active; inhibition [32]: Active; inhibition [33]: Active
155 nM,> 100000 nM,685 nM,COc1cc2ncnc3c2cc1OCCOCCOc1ccccc1N3,IC50 [34]: 1680 nM
0.3 nM,> 100000 nM,0.7 nM,COc1cc2ncnc3c2cc1OCCOCCOCCOc1ccc(Cl)cc1N3,inhibition [25]: Active; inhibition [26]: Active; inhibition [27]: Active; inhibition [28]: Active; inhibition [29]: Active; inhibition [30]: Active; inhibition [31]: Active; inhibition [32]: Active; inhibition [33]: Active
56.8 nM,> 100000 nM,275 nM,COc1cc2ncnc3c2cc1OCCCCCCOc1cccc(Cl)c1N3,–
24.9 nM,> 100000 nM,128 nM,COc1cc2ncnc3c2cc1OCCOCCOc1ccc(Cl)cc1N3,–
491 nM,–,–,COc1cc2ncnc3c2cc1OCCCCCCOc1ccccc1N3,–
